{"source": "patent US6156700A", "about": "“3-(1,2-Benzisothiazol- and isoxazol-5-yl)-2,4(1H,3H)-pyrimidinedione or thione and 3-(1,2-benzisothiazol- and isoxazol-5-yl)-4(3H)-pyrimidinone or thione herbicidal agents” (American Cyanmid Company, priority 1998, dated 2000)", "key": {"[1]": {"tested_on": "Morningglory, Ivyleaf, Ipomoea hederacea", "assay": "Preemergence herbicidal evaluation, IPOHE", "format": "in vivo, (L.) Jacq.", "settings": "0.2500 kg/ha", "source_text": "Results of herbicide evaluation are expressed on a rating scale (0-9). The scale is based upon a visual observation of plant stand, vigor, malformation, size, chlorosis and overall plant appearance as compared with a control.\nThe preemergence herbicidal activity of the test compounds of the present invention is exemplified by the following tests in which the seeds of a variety of monocotyledonous and dicotyledonous plants are separately mixed with potting soil and planted on top of approximately one inch of soil in separate pint cups. After planting, the cups are sprayed with the selected aqueous acetone solution containing test compound in sufficient quantity to provide the equivalent of about 0.0156 to 0.500 kg per hectare of test compound per cup. The treated cups are then placed on greenhouse benches, watered and cared for in accordance with conventional greenhouse procedures. From four to five weeks after treatment, the tests are terminated and each cup is examined and rated according to the rating system provided in Example 185.\nThe compounds evaluated are reported by compound number given in Example 185."}, "[2]": {"tested_on": "Morningglory, Ivyleaf, Ipomoea hederacea", "assay": "Postemergence herbicidal evaluation, IPOHE", "format": "in vivo, (L.) Jacq.", "settings": "0.0630 kg/ha", "summary_of_the_method": "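Greenhouse postemergence test. Seedlings about two weeks old sprayed (40 psi) with compound in 50/50 acetone/water, 0.5% TWEEN 20, at rates near 0.0157–0.500 kg/ha; rated 0–9 by eye at 4–5 weeks.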"}}, "data": [{"smiles": "COC(=O)C(C)Oc1ccc(C)cc1-c1nsc2ccc(-n3c(=O)cc(C(F)(F)F)n(C)c3=O)cc12", "note": "(centres unmarked) [Compound 3]", "values": [{"measurement": "herbicide rating (0-9)", "setting": "[1]", "result": 9.0}, {"measurement": "herbicide rating (0-9)", "setting": "[2]", "result": 9.0}]}]}
